Data as given in US20230202989A1, “COMPOUNDS” (JANSSEN PHARMACEUTICA NV, priority 2020, published 2023).
Read-outs that look alike come from different tables or passages of the source.

Key:
[1] = test system: IL-1β; experiment: PBMC assay: inhibition of IL-1β release after LPS stimulation (MSD); format: cell-based; details: human PBMCs, 100 ng/ml LPS for 6 hrs, MSD, 96 well plates, read-out: IL1β IC50
Method: Peripheral venous blood s collected from health individuals and human peripheral blood mononuclear cells (PBMCs) ere isolated from blood by Ficoll Histopaque (Sigma-Aldrich, A0561) density gradient centrifugation. After isolation, PBMCs were stored in liquid nitrogen for later use. Upon thawing, PBMC cell viability was determined in growth medium (RPMI media supplemented with 10% fetal bovine serum, 1% Pen-Strep and 1% L-glutamine). […] PBMCs were added at a density of 7.5×10^4 cells per well and incubated for 30 min in a 5% CO2 incubator at 37° C. LPS stimulation was performed by addition of 100 ng/ml LPS (final concentration, Invivogen, tlrl-smlps) for 6 hrs followed by collection of cellular supernatant and the analysis of IL-1β (μM) and TNF cytokines levels (μM) via MSD technology according to manufacturers' guidelines (MSD, K151A0H).
(§1) The IC50 values (for IL-1β) and EC50 values (TNF) were obtained on compounds of the invention/examples, and are depicted in the following table: […]

[2] = test system: TNF; experiment: PBMC assay: TNF cytokine levels after LPS stimulation (MSD); format: cell-based; details: human PBMCs, 100 ng/ml LPS for 6 hrs
Method: Peripheral venous blood s collected from health individuals and human peripheral blood mononuclear cells (PBMCs) ere isolated from blood by Ficoll Histopaque (Sigma-Aldrich, A0561) density gradient centrifugation. After isolation, PBMCs were stored in liquid nitrogen for later use. Upon thawing, PBMC cell viability was determined in growth medium (RPMI media supplemented with 10% fetal bovine serum, 1% Pen-Strep and 1% L-glutamine). Compounds were spotted in a 1:3 serial dilution in DMSO and diluted to the final concentration in 30 μl medium in 96 well plates (Falcon, 353072). PBMCs were added at a density of 7.5×10^4 cells per well and incubated for 30 min in a 5% CO2 incubator at 37° C. LPS stimulation was performed by addition of 100 ng/ml LPS (final concentration, Invivogen, tlrl-smlps) for 6 hrs followed by collection of cellular supernatant and the analysis of IL-1β (μM) and TNF cytokines levels (μM) via MSD technology according to manufacturers' guidelines (MSD, K151A0H).
as §1

Row | Structure (SMILES) | IC50 ([1]; Homo sapiens, PBMC, 6 h) | EC50 ([2]; Homo sapiens, PBMC, 6 h) | IC50 [1] | EC50 [2]
1 | CC(C)c1nn(CC(=O)Nc2ccc3ncn(C)c3c2)c(=O)c2ccc(C(F)(F)F)cc12 [Final Cpd X25] | 178 nM | > 20000 nM | – | –
2 | CC(C)c1nn(CC(=O)Nc2ccc3nncn3c2)c(=O)c2ccc(C(F)(F)F)c(F)c12 [Final Cpd X26] | 185 nM | > 20000 nM | – | –
3 | Cc1cn2cc(NC(=O)Cn3nc(C(C)C)c4cc(C(F)(F)F)ccc4c3=O)ccc2n1 [Final Cpd X27] | 189 nM | > 20000 nM | – | –
4 | Cc1cc(NC(=O)Cn2nc(C(C)C)c3cc(C(F)(F)F)ccc3c2=O)cn2cnnc12 [Final Cpd X28, 2-(4-isopropyl-1-oxo-6-(trifluoromethyl)phthalazin-2(1H)-yl)-N-(8-methyl-[1,2,4]triazolo[4,3-a]pyridin-6-yl)acetamide] | 193 nM | > 20000 nM | – | –
5 | CO[C@]1(C)C[C@H](NC(=O)Cn2nc(C(C)C)c3cc(C(F)(F)F)ccc3c2=O)C1 [Final Cpd X29, 2-(4-isopropyl-1-oxo-6-(trifluoromethyl)phthalazin-2(1H)-yl)-N-((1s,3s)-3-methoxy-3-methylcyclobutyl)acetamide] | 216 nM | > 20000 nM | – | –
6 | CCc1nn(CC(=O)Nc2ccnnc2)c(=O)c2ccc(C(F)(F)F)cc12 [Final Cpd X30] | 219 nM | > 20000 nM | – | –
7 | CC(C)c1nn(CC(=O)Nc2ccc3nccn3c2)c(=O)c2ccc(C(F)(F)F)cc12 [Final Cpd X31] | 233 nM | > 20000 nM | – | –
8 | O=C(Cn1nc(C(F)F)c2cc(C(F)(F)F)ccc2c1=O)Nc1ccc2nncn2c1 [Final Cpd X32] | 235 nM | > 20000 nM | – | –
9 | CC(C)c1nn(CC(=O)Nc2ccc(=O)n(C)n2)c(=O)c2ccc(C(F)(F)F)cc12 [Final Cpd X33] | 252 nM | > 20000 nM | – | –
10 | O=C(Cn1nc(C2CC2)c2cc(C(F)(F)F)ccc2c1=O)Nc1ccc2nncn2n1 [Final Cpd X34] | 255 nM | > 20000 nM | – | –
11 | CC(C)c1nn(CC(=O)N[C@H]2C[C@](O)(C(F)(F)F)C2)c(=O)c2ccc(C(F)(F)F)cc12 [Final Cpd X35] | – | > 20000 nM | 303 nM | –
12 | C[C@]1(O)C[C@@H](NC(=O)Cn2nc(C(F)F)c3cc(C(F)(F)F)ccc3c2=O)C1 [Final Cpd X36] | 304 nM | > 20000 nM | – | –
13 | CCN1C[C@H](F)C[C@@H](NC(=O)Cn2nc(C(C)C)c3cc(C(F)(F)F)ccc3c2=O)C1 [Final Cpd X37] | 316 nM | > 20000 nM | – | –
14 | CC(C)c1nn(CC(=O)Nc2ccc3ncnn3c2)c(=O)c2ccc(C(F)(F)F)cc12 [Final Cpd X38] | 331 nM | > 20000 nM | – | –
15 | CC(C)c1nn(CC(=O)Nc2cc(C(F)F)[nH]n2)c(=O)c2ccc(C(F)(F)F)cc12 [Final Cpd X39] | 347 nM | 12600 nM | – | –
16 | CC(C)c1nn(CC(=O)Nc2ccc(=O)n(CCN(C)C)n2)c(=O)c2ccc(C(F)(F)F)cc12 [Final Cpd X40] | 349 nM | > 20000 nM | – | –
17 | CC(C)c1nn(CC(=O)N[C@H]2CC[C@@H](O)CC2)c(=O)c2ccc(C(F)(F)F)cc12 [Final Cpd X42] | 353 nM | 15000 nM | – | –
18 | CC(C)c1nn(CC(=O)N[C@H]2CC[C@H](O)CC2)c(=O)c2ccc(C(F)(F)F)cc12 [Final Cpd X44] | 374 nM | > 20000 nM | – | –
19 | O=C(Cn1nc(C2CC2)c2cc(C(F)(F)F)ccc2c1=O)N[C@H]1CN(C2CC2)CC[C@H]1O [Final Cpd X45] | 384 nM | > 20000 nM | – | –
20 | CC(C)c1nn(CC(=O)N[C@H]2CC[C@@](C)(O)CC2)c(=O)c2ccc(C(F)(F)F)cc12 [Final Cpd X46] | 388 nM | > 20000 nM | – | –
21 | CC(C)c1nn(CC(=O)Nc2ccc3ncn(C)c3n2)c(=O)c2ccc(C(F)(F)F)cc12 [Final Cpd X47, 2-(4-isopropyl-1-oxo-6-(trifluoromethyl)phthalazin-2(1H)-yl)-N-(3-methyl-3H-imidazo[4,5-b]pyridin-5-yl)acetamide] | 394 nM | > 20000 nM | – | –

Row | Structure (SMILES) | IC50 ([1]; Homo sapiens, PBMC, 6 h) | EC50 ([2]; Homo sapiens, PBMC, 6 h) | IC50 [1] | EC50 [2]
22 | Cc1ncc2ccc(NC(=O)Cn3nc(C(C)C)c4cc(C(F)(F)F)ccc4c3=O)cn12 [Final Cpd X48] | 398 nM | > 20000 nM | – | –
23 | CC(C)c1nn(CC(=O)Nc2ccc3nnn(C)c3c2)c(=O)c2ccc(C(F)(F)F)cc12 [Final Cpd X49] | 400 nM | 9700 nM | – | –
24 | O=C(Cn1nc(C(F)F)c2cc(C(F)(F)F)ccc2c1=O)Nc1ccncn1 [Final Cpd X50] | 438 nM | > 20000 nM | – | –
25 | Cc1cc(NC(=O)Cn2nc(C(C)C)c3cc(C(F)(F)F)ccc3c2=O)nn(C)c1=O [Final Cpd X51] | 440 nM | > 20000 nM | – | –
26 | CC(C)c1nn(CC(=O)Nc2cc(Br)c3nncn3c2)c(=O)c2ccc(C(F)(F)F)cc12 [Final Cpd X52, N-(8-Bromo-[1,2,4]triazolo[4,3-a]pyridin-6-yl)-2-(4-isopropyl-1-oxo-6-(trifluoromethyl)phthalazin-2(1H)-yl)acetamide] | 442 nM | > 20000 nM | – | –
27 | Cc1cn2nc(NC(=O)Cn3nc(C(C)C)c4cc(C(F)(F)F)ccc4c3=O)ccc2n1 [Final Cpd X53] | 444 nM | > 20000 nM | – | –
28 | CC(C)c1nn(CC(=O)Nc2ccn3ccnc3c2)c(=O)c2ccc(C(F)(F)F)cc12 [Final Cpd X54] | 451 nM | > 20000 nM | – | –
29 | CC(C)c1nn(CC(=O)N[C@H]2CCc3nncn3C2)c(=O)c2ccc(C(F)(F)F)cc12 [Final Cpd X55] | 460 nM | > 20000 nM | – | –
30 | CC(C)c1nn(CC(=O)N[C@H]2CC[C@@H]2O)c(=O)c2ccc(C(F)(F)F)cc12 [Final Cpd X56] | 493 nM | > 20000 nM | – | –
31 | Cc1nc2ccc(NC(=O)Cn3nc(C(C)C)c4cc(C(F)(F)F)ccc4c3=O)cn2n1 [Final Cpd X57] | 545 nM | > 20000 nM | – | –
32 | CC(=O)c1nn(CC(=O)Nc2ccc3nncn3c2)c(=O)c2ccc(C(F)(F)F)cc12 [Final Cpd X58] | 551 nM | > 20000 nM | – | –
33 | CC(c1nn(CC(=O)Nc2ccc3nncn3c2)c(=O)c2ccc(C(F)(F)F)cc12)C(F)(F)F (stereo not shown) [Final Cpd X59] | 561 nM | > 20000 nM | – | –
34 | CC(C)c1nn(CC(=O)N[C@H]2CCCN3CCC[C@@H]23)c(=O)c2ccc(C(F)(F)F)cc12 [Final Cpd X60] | 585 nM | > 20000 nM | – | –
35 | O=C(Cn1nc(C(O)C(F)(F)F)c2cc(C(F)(F)F)ccc2c1=O)Nc1ccc2nncn2c1 (stereo not shown) [Final Cpd X61] | 588 nM | > 20000 nM | – | –
36 | COCCn1nc(NC(=O)Cn2nc(C(C)C)c3cc(C(F)(F)F)ccc3c2=O)ccc1=O [Final Cpd X62] | 591 nM | > 20000 nM | – | –
37 | CC(C)c1nn(CC(=O)Nc2ccc3nnc(Cl)n3n2)c(=O)c2ccc(C(F)(F)F)cc12 [Final Cpd X63] | 600 nM | > 20000 nM | – | –
38 | CC(C)c1nn(CC(=O)Nc2ccc3nc(C(F)(F)F)cn3c2)c(=O)c2ccc(C(F)(F)F)cc12 [Final Cpd X64, 2-(4-isopropyl-1-oxo-6-(trifluoromethyl)phthalazin-2(1H)-yl)-N-(2-(trifluoromethyl)imidazo[1,2-a]pyridin-6-yl)acetamide] | 668 nM | > 20000 nM | – | –
39 | CC(C)c1nn(CC(=O)N[C@H]2C[C@](O)(C(F)(F)F)C2)c(=O)c2ccc(C(F)(F)F)cc12 [Final Cpd X65] | – | – | 668 nM | > 20000 nM
40 | CC(O)c1nn(CC(=O)Nc2ccc3nncn3c2)c(=O)c2ccc(C(F)(F)F)cc12 (stereo not shown) [Final Cpd X66] | 670 nM | > 20000 nM | – | –
41 | CC(C)c1nn(CC(=O)N[C@H]2C[C@@H](O)C2)c(=O)c2ccc(C(F)(F)F)cc12 [Final Cpd X67] | 679 nM | > 20000 nM | – | –
